# Activity calls are given as the source filed them. The rule behind the calls is not given here.
# Key:
# Cytochrome P450 2C19 = Cytochrome P450 2C19 (Homo sapiens, UniProt P33261); experiment: Inhibition of CYP2C19 in human liver microsomes; assay type: ADME, Microsome
# BXPC-3 [1] = experiment: Antitumor activity against human BXPC-3 cells xenografted BALB/c mouse model assessed as reduction in Ki67 expression at 10 mg/kg,po administrated once daily for 8 weeks by immunohistochemical analysis; assay type: functional, organism-based
# [2] = biological target: T1, Signal transducer and activator of transcription 3 (Homo sapiens, UniProt P40763); experiment: Thermal stabilization of STAT3 in human BXPC-3 cells at 10 microM at 44.6 degreeC incubated for 1 hrs by cellular thermal shift assay; assay type: cell-based
# [3] = biological target: T1, Signal transducer and activator of transcription 3; experiment: Thermal stabilization of STAT3 in human BXPC-3 cells at 10 microM at 42.9 degreeC incubated for 1 hrs by cellular thermal shift assay; assay type: cell-based
# [4] = Inhibition of ATP production in human BXPC-3 cells incubated for 20 to 24 hrs by ATP assay kit method; assay type: functional, cell-based
# [5] = biological target: T1, Signal transducer and activator of transcription 3; experiment: Inhibition of STAT3 in human Capan-2 cells assessed as inhibition of STAT3 phosphorylation at Ser 727 at 1 to 30 nM incubated for 22 to 24 hrs by western blot analysis; assay type: cell-based; settings: dose 1-30 nM, time 22-24 hrs, DDE = dose-dependent effect
# [6] = MRT (0 to last) in BALB/c mouse at 1 mg/kg,iv measured upto 24 hrs by LC-MS/MS analysis; assay type: ADME, organism-based; settings: BALB/c, in vivo
# CFPAC-1 [7] = experiment: Inhibition of mitochondrial respiration in human CFPAC-1 cells at 1 to 30 nM incubated for 1 hr by seahorse XF96 flux analyzer; assay type: functional, cell-based; settings: dose 1-30 nM, DDE = dose-dependent effect
# [8] = Toxicity in BALB/c mouse xenografted with human BXPC-3 cells assessed as effect on lung at 30 mg/kg,po administrated once daily for 8 weeks by H and E staining based microscopic analysis; assay type: organism-based; settings: in vivo, 1344 h
# CFPAC-1 [9] = experiment: Inhibition of mitochondrial respiration in human CFPAC-1 cells assessed as reduction in oxygen consumption rate at 1 to 30 nM incubated for 1 hr by seahorse XF96 flux analyzer; assay type: functional, cell-based; settings: dose 1-30 nM, DDE = dose-dependent effect
# [10] = biological target: T1, Signal transducer and activator of transcription 3; experiment: Inhibition of STAT3 in human BXPC-3 cells assessed as inhibition of STAT3 phosphorylation at Ser 727 at 1 to 30 nM incubated for 22 to 24 hrs by western blot analysis; assay type: cell-based; settings: dose 1-30 nM, time 22-24 hrs, DDE = dose-dependent effect
# [11] = Microsomal stability in dog liver microsomes assessed as half life incubated upto 40 mins in presence of NADPH by LC-MS/MS analysis; assay type: ADME, Canis lupus familiaris, Microsome
# [12] = biological target: T1, Signal transducer and activator of transcription 3; experiment: Inhibition of STAT3 in human Capan-2 cells assessed as reduction of c-Myc expression at 30 nM incubated for 4 to 24 hrs by western blot analysis; assay type: cell-based; settings: time 4-24 hrs, TDE = time-dependent effect
# BXPC-3 [13] = experiment: Anti-proliferative activity against human BXPC-3 cells assessed as cell growth inhibition incubated for 72 hrs by MTS assay; assay type: functional, cell-based; settings: BXPC-3, 72 h
# [14] = Oral bioavailability in BALB/c mouse at 10 mg/kg,po measured upto 24 hrs by LC-MS/MS analysis; assay type: ADME, organism-based; settings: in vivo
# Cytochrome P450 3A4 = Cytochrome P450 3A4 (Homo sapiens, UniProt P08684); experiment: Inhibition of CYP3A4 in human liver microsomes using testosterone as substrate in presence of NADPH by HPLC analysis; assay type: ADME, Microsome
# [15] = Cmax in BALB/c mouse at 1 mg/kg,iv measured upto 24 hrs by LC-MS/MS analysis; assay type: ADME, organism-based; design: dose 1 mg/kg, time < 24 hrs, route iv; settings: in vivo
# [16] = biological target: Epidermal growth factor receptor (Homo sapiens, UniProt P00533); experiment: Inhibition of EGFR (unknown origin)
# [17] = biological target: T1, Signal transducer and activator of transcription 3; experiment: Thermal stabilization of STAT3 in human BXPC-3 cells at 10 microM at 47.4 degreeC incubated for 1 hrs by cellular thermal shift assay; assay type: cell-based
# [18] = biological target: T1, Signal transducer and activator of transcription 3; experiment: Inhibition of STAT3 in human Capan-2 cells assessed as inhibition of STAT3 phosphorylation at Tyr 705 at 10 nM incubated for 22 to 24 hrs by western blot analysis; assay type: cell-based; settings: time 22-24 hrs
# BXPC-3 [19] = experiment: Antitumor activity against human BXPC-3 cells xenografted BALB/c mouse model assessed as reduction in Ki67 expression at 30 mg/kg,po administrated once daily for 8 weeks by immunohistochemical analysis; assay type: functional, organism-based
# Capan-2 = experiment: Inhibition of colony formation in human Capan-2 cells at 3 to 10 nM incubated for 5 to 7 days by crystal violet staining assay; assay type: functional, cell-based; settings: dose 3-10 nM, time 5-7 day, DDE = dose-dependent effect
# [20] = biological target: T1, Signal transducer and activator of transcription 3; experiment: Inhibition of STAT3 in human BXPC-3 cells assessed as inhibition of STAT3 phosphorylation at Tyr 705 at 10 nM incubated for 22 to 24 hrs by western blot analysis; assay type: cell-based; settings: time 22-24 hrs
# [21] = biological target: T1, Signal transducer and activator of transcription 3; experiment: Inhibition of STAT3 in human Capan-2 cells assessed as inhibition of STAT3 phosphorylation at Tyr 705 at 30 nM incubated for 4 to 24 hrs by western blot analysis; assay type: cell-based; settings: time 4-24 hrs, TDE = time-dependent effect
# [22] = biological target: T1, Signal transducer and activator of transcription 3; experiment: Inhibition of STAT3 in human BXPC-3 cells assessed as inhibition of IL-6 stimulated STAT3 nuclear translocation by immunofluorescent assay; assay type: cell-based
# [23] = Toxicity in BALB/c mouse xenografted with human BXPC-3 cells assessed as effect on spleen at 10 mg/kg,po administrated once daily for 8 weeks by H and E staining based microscopic analysis; assay type: organism-based; settings: in vivo, 1344 h
# [24] = Microsomal stability in dog liver microsomes assessed as compound remaining incubated for 60 mins in presence of NADPH by LC-MS/MS analysis; assay type: ADME, Canis lupus familiaris, Microsome; settings: read-out: Stability
# Mus musculus = experiment: In vivo inhibition of STAT3 in BALB/c mouse xenografted with human BXPC-3 cells assessed as inhibition of STAT3 phosphorylation at Tyr 705 at 10 mg/kg,po administrated once daily for 8 weeks by immunohistochemical analysis; assay type: functional, organism-based
# [25] = Toxicity in BALB/c mouse xenografted with human BXPC-3 cells assessed as effect on liver at 10 mg/kg,po administrated once daily for 8 weeks by H and E staining based microscopic analysis; assay type: organism-based; settings: in vivo, 1344 h
# CFPAC-1 [26] = experiment: Anti-proliferative activity against human CFPAC-1 cells assessed as cell growth inhibition incubated for 72 hrs by MTS assay; assay type: functional, cell-based; settings: CFPAC-1, 72 h
# Cytochrome P450 2D6 = Cytochrome P450 2D6 (Homo sapiens, UniProt P10635); experiment: Inhibition of CYP2D6 in human liver microsomes using dextromethorphan as substrate incubated for 60 mins in presence of NADPH by HPLC analysis; assay type: ADME, Microsome
# [27] = biological target: T1, Signal transducer and activator of transcription 3; experiment: Inhibition of STAT3 in human BXPC-3 cells assessed as inhibition of IL-6 stimulated STAT3 phosphorylation at Tyr 705 at 1 to 30 nM by western blot assay; assay type: cell-based; settings: dose 1-30 nM, DDE = dose-dependent effect
# CFPAC-1 [28] = experiment: Inhibition of mitochondrial respiration in human CFPAC-1 cells assessed as reduction in maximal respiration rate at 1 to 30 nM incubated for 1 hr by seahorse XF96 flux analyzer; assay type: functional, cell-based; settings: dose 1-30 nM, DDE = dose-dependent effect
# BXPC-3 [29] = experiment: Inhibition of mitochondrial respiration in human BXPC-3 cells assessed as reduction in oxygen consumption rate at 1 to 30 nM incubated for 1 hr by seahorse XF96 flux analyzer; assay type: functional, cell-based; settings: dose 1-30 nM, DDE = dose-dependent effect
# [30] = Half life in BALB/c mouse at 10 mg/kg,po measured upto 24 hrs by LC-MS/MS analysis; assay type: ADME, organism-based; settings: in vivo
# T1 sequence (P40763 whole entry): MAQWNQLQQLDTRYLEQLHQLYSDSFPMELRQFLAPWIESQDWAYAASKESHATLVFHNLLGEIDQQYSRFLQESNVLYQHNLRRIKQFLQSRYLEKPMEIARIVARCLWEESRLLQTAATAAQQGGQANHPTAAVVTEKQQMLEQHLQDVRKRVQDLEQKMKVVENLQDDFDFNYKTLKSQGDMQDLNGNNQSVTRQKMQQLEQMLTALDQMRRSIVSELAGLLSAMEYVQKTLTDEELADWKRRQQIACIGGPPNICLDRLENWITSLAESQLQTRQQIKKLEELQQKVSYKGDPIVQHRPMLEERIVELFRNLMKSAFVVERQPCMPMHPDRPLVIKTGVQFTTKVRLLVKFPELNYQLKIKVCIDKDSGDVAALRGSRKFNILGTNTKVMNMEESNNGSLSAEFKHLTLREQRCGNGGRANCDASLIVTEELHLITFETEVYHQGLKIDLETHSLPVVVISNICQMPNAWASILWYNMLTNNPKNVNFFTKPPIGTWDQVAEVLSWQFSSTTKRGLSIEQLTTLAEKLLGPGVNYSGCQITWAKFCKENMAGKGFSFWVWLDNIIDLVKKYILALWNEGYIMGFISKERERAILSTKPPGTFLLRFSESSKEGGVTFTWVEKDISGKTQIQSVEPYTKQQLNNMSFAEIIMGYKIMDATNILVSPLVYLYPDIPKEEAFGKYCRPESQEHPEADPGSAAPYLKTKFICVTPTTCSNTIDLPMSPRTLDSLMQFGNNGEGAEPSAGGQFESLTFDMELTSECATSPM
# Sequence of Cytochrome P450 3A4 (P08684 whole entry): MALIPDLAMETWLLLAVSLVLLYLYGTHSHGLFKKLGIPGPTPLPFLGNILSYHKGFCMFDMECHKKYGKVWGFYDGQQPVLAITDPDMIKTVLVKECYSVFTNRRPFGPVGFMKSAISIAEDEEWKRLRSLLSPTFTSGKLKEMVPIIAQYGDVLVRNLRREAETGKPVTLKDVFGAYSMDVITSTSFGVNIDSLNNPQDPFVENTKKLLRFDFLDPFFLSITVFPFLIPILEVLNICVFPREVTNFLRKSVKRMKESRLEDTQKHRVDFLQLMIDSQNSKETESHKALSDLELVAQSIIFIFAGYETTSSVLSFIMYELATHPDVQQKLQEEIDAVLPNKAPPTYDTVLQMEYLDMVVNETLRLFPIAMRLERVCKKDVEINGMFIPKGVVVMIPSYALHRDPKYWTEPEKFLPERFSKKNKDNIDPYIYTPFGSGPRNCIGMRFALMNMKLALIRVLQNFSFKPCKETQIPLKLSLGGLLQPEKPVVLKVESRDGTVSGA
# Sequence of Cytochrome P450 2C19 (P33261 whole entry): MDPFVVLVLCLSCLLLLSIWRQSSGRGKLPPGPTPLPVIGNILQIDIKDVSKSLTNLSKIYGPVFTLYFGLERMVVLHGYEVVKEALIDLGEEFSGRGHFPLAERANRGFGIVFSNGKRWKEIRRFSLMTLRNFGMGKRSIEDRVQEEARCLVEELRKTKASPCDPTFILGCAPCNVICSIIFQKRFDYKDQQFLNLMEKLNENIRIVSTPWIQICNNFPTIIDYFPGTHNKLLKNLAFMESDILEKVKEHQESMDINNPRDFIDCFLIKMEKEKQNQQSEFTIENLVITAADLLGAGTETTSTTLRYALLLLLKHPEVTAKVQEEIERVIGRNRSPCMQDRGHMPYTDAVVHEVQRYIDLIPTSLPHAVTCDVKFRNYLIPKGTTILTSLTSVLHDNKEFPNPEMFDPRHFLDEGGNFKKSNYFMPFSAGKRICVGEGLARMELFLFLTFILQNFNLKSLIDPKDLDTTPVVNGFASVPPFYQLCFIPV
# Sequence of Cytochrome P450 2D6 (P10635 whole entry): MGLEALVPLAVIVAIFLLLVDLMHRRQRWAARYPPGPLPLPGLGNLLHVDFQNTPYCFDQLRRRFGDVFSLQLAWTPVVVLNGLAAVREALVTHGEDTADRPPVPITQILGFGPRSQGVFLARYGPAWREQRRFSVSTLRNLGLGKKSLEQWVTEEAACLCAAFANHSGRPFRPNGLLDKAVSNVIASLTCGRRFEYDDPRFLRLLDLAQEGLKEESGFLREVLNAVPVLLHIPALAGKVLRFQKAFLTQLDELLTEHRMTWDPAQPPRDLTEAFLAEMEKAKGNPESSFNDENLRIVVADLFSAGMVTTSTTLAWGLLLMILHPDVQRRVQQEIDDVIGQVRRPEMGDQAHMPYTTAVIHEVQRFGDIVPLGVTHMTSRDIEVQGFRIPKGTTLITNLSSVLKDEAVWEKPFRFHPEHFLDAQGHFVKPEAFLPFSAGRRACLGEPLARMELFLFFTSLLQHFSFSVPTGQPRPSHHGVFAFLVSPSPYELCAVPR
# Sequence of Epidermal growth factor receptor (P00533 whole entry): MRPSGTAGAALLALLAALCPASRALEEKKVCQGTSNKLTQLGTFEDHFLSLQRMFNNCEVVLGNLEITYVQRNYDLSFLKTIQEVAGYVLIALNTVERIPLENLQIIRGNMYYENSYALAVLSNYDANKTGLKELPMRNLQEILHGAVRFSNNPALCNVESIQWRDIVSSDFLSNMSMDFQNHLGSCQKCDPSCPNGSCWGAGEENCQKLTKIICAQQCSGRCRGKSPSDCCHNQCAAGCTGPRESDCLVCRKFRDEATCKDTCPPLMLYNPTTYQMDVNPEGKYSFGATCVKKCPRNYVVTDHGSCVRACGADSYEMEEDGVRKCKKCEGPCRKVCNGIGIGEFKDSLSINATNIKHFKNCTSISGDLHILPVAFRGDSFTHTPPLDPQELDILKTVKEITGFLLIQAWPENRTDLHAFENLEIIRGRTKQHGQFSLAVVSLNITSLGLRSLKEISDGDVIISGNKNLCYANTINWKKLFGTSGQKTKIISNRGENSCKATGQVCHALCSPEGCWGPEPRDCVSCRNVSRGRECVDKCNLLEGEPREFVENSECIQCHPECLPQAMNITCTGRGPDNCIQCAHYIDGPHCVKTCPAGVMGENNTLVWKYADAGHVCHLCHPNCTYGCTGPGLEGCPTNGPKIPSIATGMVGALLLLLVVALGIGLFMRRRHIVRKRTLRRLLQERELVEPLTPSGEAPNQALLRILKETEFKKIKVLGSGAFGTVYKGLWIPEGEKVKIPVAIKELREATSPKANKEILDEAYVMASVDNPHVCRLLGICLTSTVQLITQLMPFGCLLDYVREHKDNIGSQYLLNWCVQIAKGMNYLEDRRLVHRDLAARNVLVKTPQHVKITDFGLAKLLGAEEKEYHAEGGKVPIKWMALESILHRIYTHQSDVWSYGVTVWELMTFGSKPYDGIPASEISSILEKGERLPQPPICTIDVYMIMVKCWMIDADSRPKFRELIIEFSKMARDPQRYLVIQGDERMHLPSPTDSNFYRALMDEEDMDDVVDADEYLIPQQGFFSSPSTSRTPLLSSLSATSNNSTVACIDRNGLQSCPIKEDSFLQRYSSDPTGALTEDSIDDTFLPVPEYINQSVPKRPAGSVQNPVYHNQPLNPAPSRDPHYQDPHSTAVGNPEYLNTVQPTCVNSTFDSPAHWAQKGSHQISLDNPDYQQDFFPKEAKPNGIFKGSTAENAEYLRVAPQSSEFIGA
smiles,measurement,setting,value
COc1ccc(-c2noc(-c3cnc(Oc4ccc5cc(C(=O)N6CCN(Cc7ccc(OCC(F)(F)F)cc7)CC6)n(C)c5c4)cn3)n2)cc1,IC50,Cytochrome P450 2C19,> 50000 nM
same,Activity,BXPC-3 [1],Active
same,Activity,[2],Active
same,Activity,[3],Active
same,IC50,[4],4.2 nM
same,inhibition,[5],Dde
same,MRT last at 24 h,[6],8.1 h
same,inhibition,CFPAC-1 [7],Dde
same,Activity,[8],Non-Toxic
same,inhibition,CFPAC-1 [9],Dde
same,inhibition,[10],Dde
same,half-life,[11],1.25 h
same,inhibition,[12],Tde
same,IC50,BXPC-3 [13],0.4 nM
same,bioavailability,[14],29.1%
same,IC50,Cytochrome P450 3A4,> 50000 nM
same,Cmax,[15],2570 ng/mL
same,IC50,[16],> 10000 nM
same,Activity,[17],Active
same,inhibition,[18],Active
same,Activity,BXPC-3 [19],Active
same,inhibition,Capan-2,Dde
same,inhibition,[20],Active
same,inhibition,[21],Tde
same,inhibition,[22],Active
same,Activity,[23],Non-Toxic
same,remaining at 1 h,[24],55.8%
same,inhibition,Mus musculus,Active
same,Activity,[25],Non-Toxic
same,IC50,CFPAC-1 [26],6 nM
same,IC50,Cytochrome P450 2D6,> 50000 nM
same,inhibition,[27],Dde
same,inhibition,CFPAC-1 [28],Dde
same,inhibition,BXPC-3 [29],Dde
same,half-life,[30],9.4 h

# Reference: ChEMBL document CHEMBL5096221, “Discovery of a Highly Potent and Orally Bioavailable STAT3 Dual Phosphorylation Inhibitor for Pancreatic Cancer Treatment” (J Med Chem, 2022)
